Laboratory results from patent US7544773B2 (priority 2003, dated 2009).
No end group written: not given here.

Molecular target: Caf1M-Caf1, Caf1M-(Caf1)2 and Caf1M-(Caf1)3 complexes (Yersinia pestis, UniProt P26948)
Sequence (P26948 22-170 limits assumed, one chain of several): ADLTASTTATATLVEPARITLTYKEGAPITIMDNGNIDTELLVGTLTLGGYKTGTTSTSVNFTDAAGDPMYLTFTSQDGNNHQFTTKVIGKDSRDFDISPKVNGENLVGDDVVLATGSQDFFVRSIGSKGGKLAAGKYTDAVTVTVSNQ

Which results are given for ATATLV?
dissociation of the complexes to free Caf1M and Caf1: some dissociation; formation of high molecular weight complexes (polymerization): polymerization was completely inhibited
